We go through one molecule from ChEMBL document CHEMBL1127145, “Syntheses of novel 1-aminocyclopropane-1-carboxylic acid (ACC)-containing -lactams” (Bioorg Med Chem Lett, 1993).

This test addresses Beta-lactamase TEM (Escherichia coli) (UniProt P62593). The test can be described thus: Inhibitory activity towards beta-lactamase enzyme at 50 mM concentration or higher; Weak inhibitor.

The structures appear in SMILES notation. Active and inactive are the calls of the source. No cut-off for these calls is given here.

Sequence of Beta-lactamase TEM (Escherichia coli) (P62593 whole entry): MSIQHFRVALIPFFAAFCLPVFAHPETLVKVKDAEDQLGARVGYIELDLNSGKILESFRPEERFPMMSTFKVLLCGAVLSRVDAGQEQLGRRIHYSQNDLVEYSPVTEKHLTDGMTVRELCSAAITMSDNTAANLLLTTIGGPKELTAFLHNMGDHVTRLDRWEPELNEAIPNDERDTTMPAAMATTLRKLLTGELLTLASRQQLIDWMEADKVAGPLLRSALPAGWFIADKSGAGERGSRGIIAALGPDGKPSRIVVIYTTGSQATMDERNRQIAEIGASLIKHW

`CC(=O)[C@@H]1[C@H](NC(=O)c2ccccc2)C(=O)N1C1(C(=O)O)CC1`: the outcome was inactive.
